# Columns and labels:
# [1] = biological target: EZH2 within the PRC2 complex (FLAG-EZH2, EED, SUZ12, RbAp48, AEBP2) (Homo sapiens (Human), UniProt Q15910); assay: EZH2 methyltransferase scintillation proximity assay (SPA), PRC2 complex; type: biochemical; conditions: 3H-SAM, biotinylated histone H3K27 peptide, 60 min at room temperature; values of 10 nM approach the assay's limit of detection
# Experimental: Compounds contained herein were evaluated for their ability to inhibit the methyltransferase activity of EZH2 within the PRC2 complex. Human PRC2 complex was prepared by co-expressing each of the 5 member proteins (FLAG-EZH2, EED, SUZ12, RbAp48, AEBP2) in Sf9 cells followed by co-purification. Enzyme activity was measured in a scintillation proximity assay (SPA) where a tritiated methyl group is transferred from 3H-SAM to a lysine residue on a biotinylated, unmethylated peptide substrate derived from histone H3. The peptides were captured on streptavidin-coated SPA beads and the resulting signal was read on a ViewLux plate reader.
# Part A. Compound Preparation
# • 1. Prepare 10 mM stock of compounds from solid in 100% DMSO. • 2. Set up an 11-point serial dilution (1:4 dilution, top concentration 10 mM) in 100% DMSO for each test compound in a 384 well plate leaving columns 6 and 18 for DMSO controls. • 3. Dispense 10 nL of compound from the dilution plate into reaction plates (Corning, 384-well polystyrene NBS, Cat #3673). Part B. Reagent Preparation Prepare the following solutions: • 1. 1× Base Buffer, 50 mM Tris-HCl, pH 8, 2 mM MgCl2: Per 1 L of base buffer, combine 1 M Tris-HCl, pH 8 (50 mL), 1 M MgCl2 (2 mL), and distilled water (948 mL). • 2. 1× Assay Buffer: Per 10 mL of 1× Assay Buffer, combine 1× Base Buffer (9.96 mL), 1 M DTT (40 uL), and 10% Tween-20 (1 uL) to provide a final concentration of 50 mM Tris-HCl, pH 8, 2 mM MgCl2, 4 mM DTT, 0.001% Tween-20. • 3. 2× Enzyme Solution: Per 10 mL of 2× Enzyme Solution, combine 1× Assay Buffer (9.99 mL) and 3.24 uM EZH2 5 member complex (6.17 uL) to provide a final enzyme concentration of 1 nM. • 4. SPA Bead Solution: Per 1 mL of SPA Bead Solution, combine Streptavidin coated SPA beads (PerkinElmer, Cat # RPNQ0261, 40 mg) and 1× Assay Buffer (1 mL) to provide a working concentration of 40 mg/mL. • 5. 2× Substrate Solution: Per 10 mL of 2× Substrate Solution, combine 40 mg/mL SPA Bead Solution (375 uL), 1 mM biotinylated histone H3K27 peptide (200 uL), 12.5 uM 3H-SAM (240 uL; 1 mCi/mL), 1 mM cold SAM (57 uL), and 1× Assay Buffer (9.13 mL) to provide a final concentration of 0.75 mg/mL SPA Bead Solution, 10 uM biotinylated histone H3K27 peptide, 0.15 uM 3H-SAM (˜12 uCi/mL 3H-SAM), and 2.85 uM cold SAM. • 6. 2.67× Quench Solution: Per 10 mL of 2.67× Quench Solution, combine 1× Assay Buffer (9.73 mL) and 10 mM cold SAM (267 uL) to provide a final concentration of 100 uM cold SAM. Part C. Assay Reaction in 384-well Grenier Bio-One Plates Compound Addition • 1. Stamp 10 nL/well of 1000× Compound to test wells (as noted above). • 2. Stamp 10 nL/well of 100% DMSO to columns 6 & 18 (high and low controls, respectively). Assay • 1. Dispense 5 uL/well of 1× Assay Buffer to column 18 (low control reactions). • 2. Dispense 5 uL/well of 2× Substrate Solution to columns 1-24 (note: substrate solution should be mixed to ensure homogeneous bead suspension before dispensing into matrix reservoir). • 3. Dispense 5 uL/well of 2× Enzyme Solution to columns 1-17, 19-24. • 4. Incubate the reaction for 60 min at room temperature. Quench • 1. Dispense 6 uL/well of the 2.67× Quench Solution to columns 1-24. • 2. Seal assay plates and spin for ˜1 min at 500 rpm. • 3. Dark adapt plates in the ViewLux instrument for 15-60 min. Read Plates • 1. Read the assay plates on the Viewlux Plate Reader utilizing the 613 nm emission filter or clear filter (300 s exposure). Reagent addition can be done manually or with automated liquid handler. Results
# Percent inhibition was calculated relative to the DMSO control for each compound concentration and the resulting values were fit using standard IC50 fitting parameters within the ABASE data fitting software package.
# [2] = for XRPD after DVS experiment: form change or change in crystallinity: post DVS sample
# Sequence of EZH2 within the PRC2 complex (FLAG-EZH2, EED, SUZ12, RbAp48, AEBP2) (Q15910 whole entry): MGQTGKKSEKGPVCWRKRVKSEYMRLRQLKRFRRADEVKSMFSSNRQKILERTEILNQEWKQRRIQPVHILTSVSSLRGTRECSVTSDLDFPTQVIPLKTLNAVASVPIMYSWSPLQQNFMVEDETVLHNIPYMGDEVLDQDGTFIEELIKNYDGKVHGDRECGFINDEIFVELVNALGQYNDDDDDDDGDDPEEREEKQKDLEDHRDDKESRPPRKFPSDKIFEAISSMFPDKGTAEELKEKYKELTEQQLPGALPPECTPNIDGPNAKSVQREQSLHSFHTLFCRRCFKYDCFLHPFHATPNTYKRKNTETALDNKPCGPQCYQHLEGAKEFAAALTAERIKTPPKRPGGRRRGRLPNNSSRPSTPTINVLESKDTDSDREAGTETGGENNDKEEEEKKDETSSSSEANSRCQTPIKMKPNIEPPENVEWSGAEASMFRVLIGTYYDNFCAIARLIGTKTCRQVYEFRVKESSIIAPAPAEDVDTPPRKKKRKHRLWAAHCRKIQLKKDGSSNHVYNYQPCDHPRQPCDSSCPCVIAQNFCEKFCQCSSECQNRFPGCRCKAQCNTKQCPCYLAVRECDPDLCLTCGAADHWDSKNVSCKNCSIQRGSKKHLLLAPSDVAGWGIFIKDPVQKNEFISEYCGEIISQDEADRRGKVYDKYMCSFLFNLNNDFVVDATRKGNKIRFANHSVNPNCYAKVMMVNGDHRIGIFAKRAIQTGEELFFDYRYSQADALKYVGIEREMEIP
# Sequence of EZH2 within the PRC2 complex (FLAG-EZH2, EED, SUZ12, RbAp48, AEBP2) (O75530 whole entry partner): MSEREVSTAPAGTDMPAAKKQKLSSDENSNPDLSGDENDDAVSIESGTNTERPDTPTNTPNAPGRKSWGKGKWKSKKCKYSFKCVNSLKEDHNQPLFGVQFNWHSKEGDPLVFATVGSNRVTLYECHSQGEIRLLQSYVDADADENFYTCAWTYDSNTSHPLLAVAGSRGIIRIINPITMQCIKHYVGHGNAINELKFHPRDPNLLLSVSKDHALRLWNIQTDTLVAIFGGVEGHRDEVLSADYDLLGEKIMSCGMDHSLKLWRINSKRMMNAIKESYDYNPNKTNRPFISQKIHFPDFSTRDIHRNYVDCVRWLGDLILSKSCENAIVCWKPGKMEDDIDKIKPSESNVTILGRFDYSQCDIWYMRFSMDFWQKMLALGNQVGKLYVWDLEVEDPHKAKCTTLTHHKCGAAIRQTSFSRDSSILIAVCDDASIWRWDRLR
# Sequence of EZH2 within the PRC2 complex (FLAG-EZH2, EED, SUZ12, RbAp48, AEBP2) (Q15022 whole entry partner): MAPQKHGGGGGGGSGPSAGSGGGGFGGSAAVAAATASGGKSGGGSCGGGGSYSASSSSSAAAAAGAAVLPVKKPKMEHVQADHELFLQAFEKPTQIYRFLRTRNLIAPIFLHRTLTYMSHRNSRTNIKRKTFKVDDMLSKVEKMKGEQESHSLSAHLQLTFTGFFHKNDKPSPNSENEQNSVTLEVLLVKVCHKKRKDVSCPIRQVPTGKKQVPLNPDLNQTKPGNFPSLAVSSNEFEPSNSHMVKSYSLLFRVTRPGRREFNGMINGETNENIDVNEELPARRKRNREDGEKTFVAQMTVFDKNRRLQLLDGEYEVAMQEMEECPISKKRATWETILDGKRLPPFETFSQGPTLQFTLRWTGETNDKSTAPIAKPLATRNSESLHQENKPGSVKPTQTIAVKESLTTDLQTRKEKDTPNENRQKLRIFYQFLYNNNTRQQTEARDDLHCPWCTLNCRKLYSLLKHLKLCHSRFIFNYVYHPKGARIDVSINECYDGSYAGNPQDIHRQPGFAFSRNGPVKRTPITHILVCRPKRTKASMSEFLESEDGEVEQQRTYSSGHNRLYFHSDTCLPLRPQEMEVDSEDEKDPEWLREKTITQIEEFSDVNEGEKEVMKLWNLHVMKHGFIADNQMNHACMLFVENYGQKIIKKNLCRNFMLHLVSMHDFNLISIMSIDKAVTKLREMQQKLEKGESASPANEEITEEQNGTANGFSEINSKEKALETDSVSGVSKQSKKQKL
# Sequence of EZH2 within the PRC2 complex (FLAG-EZH2, EED, SUZ12, RbAp48, AEBP2) (Q09028 whole entry partner): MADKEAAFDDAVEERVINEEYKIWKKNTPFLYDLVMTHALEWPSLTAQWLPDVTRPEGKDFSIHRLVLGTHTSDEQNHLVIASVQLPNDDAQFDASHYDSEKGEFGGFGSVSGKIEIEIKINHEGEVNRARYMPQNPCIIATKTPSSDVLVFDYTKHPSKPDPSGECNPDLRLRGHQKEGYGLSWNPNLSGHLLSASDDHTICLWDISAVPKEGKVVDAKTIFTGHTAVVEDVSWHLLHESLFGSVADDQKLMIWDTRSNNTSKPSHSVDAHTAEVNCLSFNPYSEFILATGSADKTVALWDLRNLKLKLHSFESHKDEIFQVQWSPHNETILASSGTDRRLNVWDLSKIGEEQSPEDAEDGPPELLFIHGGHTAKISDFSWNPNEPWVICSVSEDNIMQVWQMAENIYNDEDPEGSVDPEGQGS
# Sequence of EZH2 within the PRC2 complex (FLAG-EZH2, EED, SUZ12, RbAp48, AEBP2) (Q6ZN18 whole entry partner): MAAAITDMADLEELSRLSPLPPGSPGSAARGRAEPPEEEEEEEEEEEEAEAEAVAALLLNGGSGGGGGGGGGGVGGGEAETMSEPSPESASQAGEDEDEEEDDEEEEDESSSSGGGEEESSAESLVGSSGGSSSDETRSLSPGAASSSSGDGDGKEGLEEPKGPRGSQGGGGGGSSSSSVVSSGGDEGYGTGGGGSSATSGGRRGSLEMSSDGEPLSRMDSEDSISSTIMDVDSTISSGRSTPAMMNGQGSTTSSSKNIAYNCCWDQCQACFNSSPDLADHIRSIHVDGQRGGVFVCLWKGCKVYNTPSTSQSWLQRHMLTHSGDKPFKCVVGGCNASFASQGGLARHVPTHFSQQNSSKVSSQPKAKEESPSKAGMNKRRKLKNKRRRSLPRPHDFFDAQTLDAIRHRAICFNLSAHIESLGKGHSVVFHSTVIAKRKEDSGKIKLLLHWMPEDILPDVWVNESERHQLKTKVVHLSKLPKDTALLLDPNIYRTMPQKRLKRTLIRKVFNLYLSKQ
structure (smiles),measurement,setting,value
"Cc1cc(C)c(CN2CCCc3sc([C@H](C)C4CCN(CC5(C)CCCC5)CC4)c(C)c3C2=O)c(=O)[nH]1 [Example 8, (R)-5-((4,6-Dimethyl-2-oxo-1,2-dihydropyridin-3-yl)methyl)-3-methyl-2-(1-(1-((1-methylcyclopentyl)methyl)piperidin-4-yl)ethyl)-5,6,7,8-tetrahydro-4H-thieno[3,2-c]azepin-4-one]",IC50,[1],≤ 10 nM
"Cc1cc(C)c(CN2CCCc3sc([C@H](C)C4CCN(CC5(C)CCC5)CC4)c(C)c3C2=O)c(=O)[nH]1 [Example 10, (R)-5-((4,6-Dimethyl-2-oxo-1,2-dihydropyridin-3-yl)methyl)-3-methyl-2-(1-(1-((1-methylcyclobutyl)methyl)piperidin-4-yl)ethyl)-5,6,7,8-tetrahydro-4H-thieno[3,2-c]azepin-4-one]",IC50,[1],≤ 10 nM
"Cc1cc(C)c(CN2CCCc3sc([C@H](C)C4CCN(CC56CCC(CC5)CC6)CC4)c(C)c3C2=O)c(=O)[nH]1 [Example 9, (R)-2-(1-(1-(Bicyclo[2.2.2]octan-1-ylmethyl)piperidin-4-yl)ethyl)-5-((4,6-dimethyl-2-oxo-1,2-dihydropyridin-3-yl)methyl)-3-methyl-5,6,7,8-tetrahydro-4H-thieno[3,2-c]azepin-4-one]",IC50,[1],≤ 10 nM
"Cc1cc(C)c(CN2CCCc3sc([C@H](C)C4CCN(CC5(C)CCC5)CC4)c(C)c3C2=O)c(=O)[nH]1.Cl [hydrochloric acid salt of (R)-5-((4,6-dimethyl-2-oxo-1,2-dihydropyridin-3-yl)methyl)-3-methyl-2-(1-(1-((1-methylcyclobutyl)methyl)piperidin-4-yl)ethyl)-5,6,7,8-tetrahydro-4H-thieno[3,2-c]azepin-4-one]",hygroscopicity,[2]; DVS isotherm 5-95% RH,low level of hygroscopicity
same,DVS moisture uptake,[2]; between 5-75% RH,~0.5%
same,DVS total uptake of water,[2]; from 5-95% RH,0.6%
same,XRPD after DVS experiment: form change or change in crystallinity,[2],did not show a change in crystal form or crystallinity
"CCC(C)(C)CN1CCC([C@@H](C)c2sc3c(c2C)C(=O)N(Cc2c(C)cc(C)[nH]c2=O)CCC3)CC1 [Example 5, (R)-5-((4,6-Dimethyl-2-oxo-1,2-dihydropyridin-3-yl)methyl)-2-(1-(1-(2,2-dimethylbutyl)piperidin-4-yl)ethyl)-3-methyl-5,6,7,8-tetrahydro-4H-thieno[3,2-c]azepin-4-one]",IC50,[1],≤ 10 nM
"Cc1cc(C)c(CN2CCCc3sc([C@H](C)C4CCN(CC5CCCC5)CC4)c(C)c3C2=O)c(=O)[nH]1 [Example 4, (R)-2-(1-(1-(Cyclopentylmethyl)piperidin-4-yl)ethyl)-5-((4,6-dimethyl-2-oxo-1,2-dihydropyridin-3-yl)methyl)-3-methyl-5,6,7,8-tetrahydro-4H-thieno[3,2-c]azepin-4-one]",IC50,[1],≤ 10 nM
"Cc1cc(C)c(CN2CCCc3sc([C@H](C)C4CCN(CC5CC5)CC4)c(C)c3C2=O)c(=O)[nH]1 [Example 7, (R)-2-(1-(1-(Cyclopropylmethyl)piperidin-4-yl)ethyl)-5-((4,6-dimethyl-2-oxo-1,2-dihydropyridin-3-yl)methyl)-3-methyl-5,6,7,8-tetrahydro-4H-thieno[3,2-c]azepin-4-one]",IC50,[1],≤ 10 nM
"Cc1cc(C)c(CN2CCCc3sc([C@H](C)C4CCN(CC5CCC5)CC4)c(C)c3C2=O)c(=O)[nH]1 [Example 2, (R)-2-(1-(1-(Cyclobutylmethyl)piperidin-4-yl)ethyl)-5-((4,6-dimethyl-2-oxo-1,2-dihydropyridin-3-yl)methyl)-3-methyl-5,6,7,8-tetrahydro-4H-thieno[3,2-c]azepin-4-one]",IC50,[1],≤ 10 nM
"Cc1cc(C)c(CN2CCCc3sc([C@H](C)C4CCN(CC(C)C)CC4)c(C)c3C2=O)c(=O)[nH]1 [Example 3, (R)-5-((4,6-Dimethyl-2-oxo-1,2-dihydropyridin-3-yl)methyl)-2-(1-(1-isobutylpiperidin-4-yl)ethyl)-3-methyl-5,6,7,8-tetrahydro-4H-thieno[3,2-c]azepin-4-one]",IC50,[1],≤ 10 nM
"Cc1cc(C)c(CN2CCCc3sc([C@H](C)C4CCN(CC(C)(C)F)CC4)c(C)c3C2=O)c(=O)[nH]1 [Example 6, (R)-5-((4,6-Dimethyl-2-oxo-1,2-dihydropyridin-3-yl)methyl)-2-(1-(1-(2-fluoro-2-methylpropyl)piperidin-4-yl)ethyl)-3-methyl-5,6,7,8-tetrahydro-4H-thieno[3,2-c]azepin-4-one]",IC50,[1],≤ 10 nM
"Cc1cc(C)c(CN2CCCc3sc([C@H](C)C4CCN(CC(C)(C)C)CC4)c(C)c3C2=O)c(=O)[nH]1 [Example 1, (R)-5-((4,6-Dimethyl-2-oxo-1,2-dihydropyridin-3-yl)methyl)-3-methyl-2-(1-(1-neopentylpiperidin-4-yl)ethyl)-5,6,7,8-tetrahydro-4H-thieno[3,2-c]azepin-4-one]",IC50,[1],≤ 10 nM
"Cc1cc(C)c(CN2CCCc3sc([C@H](C)C4CCN(CC(C)(C)C)CC4)c(C)c3C2=O)c(=O)[nH]1.Cl [hydrochloric acid salt of (R)-5-((4,6-dimethyl-2-oxo-1,2-dihydropyridin-3-yl)methyl)-3-methyl-2-(1-(1-neopentylpiperidin-4-yl)ethyl)-5,6,7,8-tetrahydro-4H-thieno[3,2-c]azepin-4-one]",DVS total moisture uptake,[2]; first cycle from 40-75% RH,0.5%
same,XRPD after DVS experiment: form change or change in crystallinity,[2],did not indicate a form change or change in crystallinity
same,DVS decrease,"[2]; second cycle, between 80-90% RH",0.4%
same,DVS sorption,"[2]; second cycle, from 5-80% RH",1.0%
"Cc1cc(C)c(CN2CCCc3sc([C@H](C)C4CCN(CC5(C)CC5)CC4)c(C)c3C2=O)c(=O)[nH]1 [Example 11, (R)-5-((4,6-Dimethyl-2-oxo-1,2-dihydropyridin-3-yl)methyl)-3-methyl-2-(1-(1-((1-methylcyclopropyl)methyl)piperidin-4-yl)ethyl)-5,6,7,8-tetrahydro-4H-thieno[3,2-c]azepin-4-one]",IC50,[1],≤ 10 nM
